We go through five compounds from patent US11551827B2, “Perfluorinated 1-alkoxypropenes in dielectric fluids and electrical devices” (priority 2017, dated 2023).

A short description of the series: Gaseous dielectric breakdown voltage measurement (Hipotronics OC60D-A dielectric strength tester). Conditions: for Dielectric breakdown voltage: gas, 0.1 inch (2.5 mm) gap, copper electrodes; for Performance as electrical insulator and interrupter (in words): judged from the dielectric breakdown voltage values in Tables 2 and 3. The series is classed as physicochemical. On the procedure:
The gaseous dielectric breakdown voltages of PE-1, PE-2, CE-1, CE-2, and CE-3 were measured experimentally using a Hipotronics OC60D-A dielectric strength tester (available from Hipotronics, Brewster, N.Y., USA), which was modified to allow measurements on low pressure gases. The electrode configuration consisted of two copper electrodes separated by a 0.1 inch (2.5 mm) gap housed in a gas tight PFTE (polytetrafluoroethylene) test chamber. The test chamber was first evacuated and then PE-1, PE-2, CE-1, CE-2, or CE-3 was charged to full vapor pressure and evacuated to the measured pressures indicated in Tables 2 and 3. The dielectric breakdown voltage (measured in kV) was measured after each evacuation to determine the dielectric strength and the results are summarized in Tables 2 and 3.

In the case of `FC(F)=C(F)C(F)(F)F` [CE-1, Hexafluoropropene], the Dielectric breakdown voltage is, setting by setting: (pressure 20 kPa) 8.8 kV; (pressure 40 kPa) 9.8 kV; (pressure 60 kPa) 11.5 kV; (pressure 80 kPa) 13.9 kV; (pressure 100 kPa) 16.3 kV; (pressure 120 kPa) 18.4 kV. The Dielectric breakdown voltage (pressure 140 kPa) is reported as 20.1 kV.

`FS(F)(F)(F)(F)F` [CE-2, Sulfur hexafluoride]: the Dielectric breakdown voltage reads like this: (pressure 13.9 kPa) 4.6 kV; (pressure 27.6 kPa) 5.4 kV; (pressure 41.4 kPa) 7.8 kV; (pressure 55.2 kPa) 9.5 kV; (pressure 69.0 kPa) 10.9 kV; (pressure 82.8 kPa) 12.5 kV. The Dielectric breakdown voltage is, setting by setting: (pressure 110 kPa) 15.3 kV; (pressure 124 kPa) 16.7 kV; (pressure 139 kPa) 18.0 kV.

Regarding `FC1(F)C(F)(F)C1(F)F` [CE-3, Perfluorocyclopropane], the Dielectric breakdown voltage stood at 4.6 kV (pressure 13.9 kPa); 6.4 kV (pressure 27.6 kPa); 8.0 kV (pressure 41.4 kPa); 9.5 kV (pressure 55.2 kPa); 10.6 kV (pressure 69.0 kPa); 12.0 kV (pressure 82.8 kPa). Further, the Dielectric breakdown voltage by setting is: (pressure 110 kPa) 14.7 kV; (pressure 124 kPa) 16.0 kV; (pressure 139 kPa) 17.1 kV.

Take `FC(OC(F)(F)C(F)(F)F)=C(F)C(F)(F)F` [PE-1, 1,2,3,3,3-Pentafluoro-1-(Perfluoroethoxy)Prop-1-Ene]: the “Performance as electrical insulator and interrupter (in words)” value was “excellent electrical insulators and interrupters”. This compound returned a Dielectric breakdown voltage (pressure 20 kPa) of 8.7 kV. The compound also had a Dielectric breakdown voltage (pressure 40 kPa) of 13.5 kV. Also, the Dielectric breakdown voltage (pressure 60 kPa) is 18.7 kV.

As for `FC(OC(F)(F)F)=C(F)C(F)(F)F` [PE-2, 1,2,3,3,3-Pentafluoro-1-(Perfluoromethoxy)Prop-1-Ene], the “Performance as electrical insulator and interrupter (in words)” value was “excellent electrical insulators and interrupters”. The compound further came in with a Dielectric breakdown voltage (pressure 20 kPa) of 8.8 kV. Besides, the Dielectric breakdown voltage (pressure 40 kPa) came to 10.9 kV. The compound further displayed a Dielectric breakdown voltage (pressure 60 kPa) of 15.6 kV. The Dielectric breakdown voltage (pressure 80 kPa) was 19.5 kV. This compound also displayed a Dielectric breakdown voltage (pressure 100 kPa) of 22.7 kV. Under “pressure 120 kPa”, this compound registered a Dielectric breakdown voltage of 25.7 kV. Besides, for the setting “pressure 140 kPa”, the Dielectric breakdown voltage amounted to 28.9 kV.
